Columns and labels:
Type in all cases: in vivo, ICR strain mice
[1] = Proportion of trans carotenoid in serum and each organ of mice (Test Example 2); conditions: mice of Test Example 1, 50 mg/kg orally once daily for 10 days
Method: In HPLC, the concentration of adonixanthin was measured as a concentration of each of the cis isomer and the trans isomer. In HPLC, the concentration of astaxanthin was measured as a concentration of each of the cis isomer and the trans isomer. Regarding each of adonixanthin and astaxanthin in serum and each organ of mice of Test Example 1, the proportion of the trans isomer was confirmed.

8-OHdG = assay: Measurement of 8-OHdG in blood in mice (Test Example 4); conditions: 300 mg/kg body weight orally once daily for 14 days, ELISA, vs control administration group (olive oil)
Description: Adonixanthin was used as an asymmetric carotenoid, and astaxanthin was used as a symmetric carotenoid. As experimental animals, ICR strain mice were used. Thirty (30) mice were used, and 10 mice each were assigned to the adonixanthin-administration group, the astaxanthin-administration group, and the control administration group. […]
After end of administration for 14 days, blood was collected from the postcava of the mice under isoflurane absorption anesthesia. […] Thereafter, 8-OHdG of the collected serum was measured using 8-hydroxy 2 deoxyguanosine ELISA Kit (ab201734) (manufactured by Abcam plc.) as an ELISA kit for measurement of 8-OHdG.
Each of the concentration of 8-OHdG in serum collected from the adonixanthin-administration group, and the concentration of 8-OHdG in serum collected from the astaxanthin-administration group, and the concentration of 8-OHdG in serum collected from the control administration group is shown in FIG. 4. The concentration was expressed as mean±standard error. […]

[2] = Retention in blood: carotenoid concentration in serum of mice (Test Example 1); conditions: 50 mg/kg body weight orally once daily for 10 days, blood 4 hours after last administration
Description: Adonixanthin was used as an asymmetric carotenoid, and astaxanthin was used as a symmetric carotenoid. As experimental animals, ICR strain mice were used. Fourteen (14) mice were used, and 4 mice each were assigned to the adonixanthin-administration group and the astaxanthin-administration group, and 6 mice were assigned to the control administration group. In grouping, each group was constituted so that the mean body weight in each group was as uniform as possible based on the body weight on the day before initiation of administration. For each experimental group, blood was collected before initiation of administration of dosing substances. […] Each of the concentration of adonixanthin in serum of blood collected from the adonixanthin-administration group (concentration relative to 1 mL of serum) and the concentration of astaxanthin in serum of blood collected from the astaxanthin-administration group (concentration relative to 1 mL of serum) was measured. […] In HPLC, the concentration of adonixanthin was measured as a concentration of each of the cis isomer and the trans isomer. In HPLC, the concentration of astaxanthin was measured as a concentration of each of the cis isomer and the trans isomer. […] From serum collected from the control administration group, neither adonixanthin nor astaxanthin were detected.

SMILES: CC1=C(/C=C/C(C)=C/C=C/C(C)=C/C=C/C=C(C)/C=C/C=C(C)/C=C/C2=C(C)C(=O)C(O)CC2(C)C)C(C)(C)CC(O)C1=O (stereo not drawn) [astaxanthin, 3,3′-dihydroxy-β,β-carotene-4,4′-dione]
- Proportion of the trans isomer in each organ versus the cis isomer, FIG. 2 [1]: higher than the proportion of the cis isomer
- Concentration of 8-OHdG in serum, FIG. 4 (8-OHdG): low
- Concentration in serum (total of cis isomer and trans isomer), FIG. 1 [2]: exist in serum at a high concentration

SMILES: CC1=C(/C=C/C(C)=C/C=C/C(C)=C/C=C/C=C(C)/C=C/C=C(C)/C=C/C2=C(C)C(=O)C(O)CC2(C)C)C(C)(C)CC(O)C1 (stereo not drawn) [adonixanthin, 3,3′-dihydroxy-β,β-caroten-4-one]
- Proportion of the trans isomer in each organ versus the cis isomer, FIG. 2 [1]: especially higher than the proportion of the cis isomer
- Concentration of 8-OHdG in serum, FIG. 4 (8-OHdG): significantly lower than that in the control administration group
- Concentration in serum (total of cis isomer and trans isomer), FIG. 1 [2]: especially likely to be retained in blood
